In ChEMBL document CHEMBL5528056, “BAY-9835: Discovery of the First Orally Bioavailable ADAMTS7 Inhibitor” (J Med Chem, 2024):
pIC50: −log10 of the molar value. ≈ marks a conversion by molar mass, not a printed value.

Legend:
[1] = Selectivity ratio of IC50 for ADAMTS12 (unknown origin) to IC50 for ADAMTS7 (unknown origin)
[2] = Selectivity ratio of IC50 for ADAM17 (unknown origin) to IC50 for ADAMTS7 (unknown origin)
[3] = Selectivity ratio of IC50 for MMP2 (unknown origin) to IC50 for ADAMTS7 (unknown origin)
[4] = Selectivity ratio of IC50 for MMP15 (unknown origin) to IC50 for ADAMTS7 (unknown origin)
[5] = Clearance in iv-dosed Wistar rat measured after 24 hrs by HPLC-MS/MS analysis; assay type: ADME; details: in vivo
[6] = target: T1, Cytochrome P450 3A4 (Homo sapiens, UniProt P08684); test: Induction of CYP3A4 in human hepatocytes assessed as threshold concentration incubated for 48 hrs by qPCR analysis; assay type: ADME, cell-based, Hepatocyte
T1 sequence (P08684 whole entry): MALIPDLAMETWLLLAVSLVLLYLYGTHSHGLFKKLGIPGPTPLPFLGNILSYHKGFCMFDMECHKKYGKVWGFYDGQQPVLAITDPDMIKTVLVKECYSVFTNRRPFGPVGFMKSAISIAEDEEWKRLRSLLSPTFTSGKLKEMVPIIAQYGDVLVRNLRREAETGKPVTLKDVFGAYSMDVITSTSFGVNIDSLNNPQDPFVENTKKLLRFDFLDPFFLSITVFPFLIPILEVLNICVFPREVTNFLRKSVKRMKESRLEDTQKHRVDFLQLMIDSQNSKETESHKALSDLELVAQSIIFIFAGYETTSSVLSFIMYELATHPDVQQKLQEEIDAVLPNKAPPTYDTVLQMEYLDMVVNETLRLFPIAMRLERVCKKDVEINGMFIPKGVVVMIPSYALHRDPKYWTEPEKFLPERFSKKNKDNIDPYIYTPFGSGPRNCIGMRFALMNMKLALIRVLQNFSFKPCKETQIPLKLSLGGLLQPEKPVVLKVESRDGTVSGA

[7] = Solubility of compound in FaSSIF measured after 24 hrs by HPLC analysis; assay type: ADME; details: simulated gi fluid
[8] = Solubility of compound in FeSSIF measured after 24 hrs by HPLC analysis; assay type: ADME; details: simulated gi fluid
[9] = Stability in aqueous solution at pH 1 to 7 measured after 24 hrs by HPLC analysis; assay type: physicochemical; details: buffer, pH 1, 24 h
[10] = target: A disintegrin and metalloproteinase with thrombospondin motifs 7 (Rattus norvegicus, UniProt Q1EHB3); test: Inhibition of recombinant rat ADAMTS7 using HiLyteFluor-488 DELSSMVLELRGLRT-K(QXL520)-E-NH2 as substrate incubated for 120 mins by FRET assay
Chain of A disintegrin and metalloproteinase with thrombospondin motifs 7 (Q1EHB3 whole entry): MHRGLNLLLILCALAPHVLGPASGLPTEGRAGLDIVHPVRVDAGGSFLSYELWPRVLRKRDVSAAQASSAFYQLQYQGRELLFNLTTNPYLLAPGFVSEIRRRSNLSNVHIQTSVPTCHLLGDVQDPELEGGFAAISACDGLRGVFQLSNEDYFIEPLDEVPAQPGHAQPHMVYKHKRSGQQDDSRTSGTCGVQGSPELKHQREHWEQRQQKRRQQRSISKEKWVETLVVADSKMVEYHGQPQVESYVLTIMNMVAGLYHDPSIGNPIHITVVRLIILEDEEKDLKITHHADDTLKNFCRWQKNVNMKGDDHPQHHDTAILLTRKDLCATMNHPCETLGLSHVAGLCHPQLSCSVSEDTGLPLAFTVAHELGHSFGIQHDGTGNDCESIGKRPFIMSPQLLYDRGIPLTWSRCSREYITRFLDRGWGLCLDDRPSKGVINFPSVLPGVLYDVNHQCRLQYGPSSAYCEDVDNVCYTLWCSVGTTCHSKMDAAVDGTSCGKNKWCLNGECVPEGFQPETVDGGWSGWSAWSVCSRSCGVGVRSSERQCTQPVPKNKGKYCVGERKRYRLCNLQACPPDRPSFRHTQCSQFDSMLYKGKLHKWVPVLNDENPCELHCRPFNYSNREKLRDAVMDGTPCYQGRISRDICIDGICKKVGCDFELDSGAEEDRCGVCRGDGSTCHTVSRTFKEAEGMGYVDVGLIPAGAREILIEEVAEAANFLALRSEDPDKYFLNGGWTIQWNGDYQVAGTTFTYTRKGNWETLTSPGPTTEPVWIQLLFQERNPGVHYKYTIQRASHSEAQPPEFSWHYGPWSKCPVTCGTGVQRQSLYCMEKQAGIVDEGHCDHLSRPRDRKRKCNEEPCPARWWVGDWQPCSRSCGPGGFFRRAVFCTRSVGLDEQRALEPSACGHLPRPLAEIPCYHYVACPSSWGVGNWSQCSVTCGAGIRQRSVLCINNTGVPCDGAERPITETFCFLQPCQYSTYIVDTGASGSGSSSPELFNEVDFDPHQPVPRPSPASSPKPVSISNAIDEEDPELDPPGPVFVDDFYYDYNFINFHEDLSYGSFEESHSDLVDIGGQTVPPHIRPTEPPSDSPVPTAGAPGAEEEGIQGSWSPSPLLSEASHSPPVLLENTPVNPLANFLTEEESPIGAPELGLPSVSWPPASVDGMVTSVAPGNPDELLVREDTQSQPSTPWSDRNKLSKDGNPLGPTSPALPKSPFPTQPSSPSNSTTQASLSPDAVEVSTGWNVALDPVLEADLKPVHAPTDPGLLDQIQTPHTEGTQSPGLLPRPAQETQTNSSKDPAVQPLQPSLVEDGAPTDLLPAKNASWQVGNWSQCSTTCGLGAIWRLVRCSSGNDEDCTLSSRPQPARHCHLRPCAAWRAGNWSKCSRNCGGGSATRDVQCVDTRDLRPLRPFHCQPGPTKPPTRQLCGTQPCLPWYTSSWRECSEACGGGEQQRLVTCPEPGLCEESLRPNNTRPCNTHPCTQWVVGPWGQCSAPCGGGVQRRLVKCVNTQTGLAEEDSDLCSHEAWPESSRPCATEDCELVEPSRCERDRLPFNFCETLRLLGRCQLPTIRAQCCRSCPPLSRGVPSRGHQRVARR

[11] = Stability in human plasma measured for 4 hrs by HPLC analysis; assay type: ADME, cell-free
[12] = Fraction unbound in mouse plasma; assay type: ADME, cell-free
[13] = Fraction unbound in human plasma; assay type: ADME, cell-free
[14] = target: T2, Cytochrome P450 1A2 (Homo sapiens, UniProt P05177); test: Inhibition of CYP1A2 in human liver microsomes using phenacetin as substrate upto 20 uM by LC-MS/MS analysis; assay type: ADME, Microsome
T2 sequence (P05177 whole entry): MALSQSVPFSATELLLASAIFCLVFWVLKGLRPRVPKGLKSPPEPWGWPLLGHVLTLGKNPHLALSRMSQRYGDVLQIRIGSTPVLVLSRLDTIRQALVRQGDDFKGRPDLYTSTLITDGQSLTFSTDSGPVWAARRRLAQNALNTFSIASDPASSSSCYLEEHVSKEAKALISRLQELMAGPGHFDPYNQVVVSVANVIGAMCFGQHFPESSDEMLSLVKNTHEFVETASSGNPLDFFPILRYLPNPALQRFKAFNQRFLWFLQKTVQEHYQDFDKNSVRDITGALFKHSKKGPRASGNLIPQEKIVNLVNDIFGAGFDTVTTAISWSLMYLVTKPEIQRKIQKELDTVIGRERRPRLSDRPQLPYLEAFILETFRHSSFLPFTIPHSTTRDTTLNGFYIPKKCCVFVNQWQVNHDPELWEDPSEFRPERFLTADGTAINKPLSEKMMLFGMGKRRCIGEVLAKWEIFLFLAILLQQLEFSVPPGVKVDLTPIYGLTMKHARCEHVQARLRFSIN

[15] = target: Cytochrome P450 2D6 (Homo sapiens, UniProt P10635); test: Inhibition of CYP2D6 in human liver microsomes using dextromethorphan as substrate upto 20 uM by LC-MS/MS analysis; assay type: ADME, Microsome
Chain of Cytochrome P450 2D6 (P10635 whole entry): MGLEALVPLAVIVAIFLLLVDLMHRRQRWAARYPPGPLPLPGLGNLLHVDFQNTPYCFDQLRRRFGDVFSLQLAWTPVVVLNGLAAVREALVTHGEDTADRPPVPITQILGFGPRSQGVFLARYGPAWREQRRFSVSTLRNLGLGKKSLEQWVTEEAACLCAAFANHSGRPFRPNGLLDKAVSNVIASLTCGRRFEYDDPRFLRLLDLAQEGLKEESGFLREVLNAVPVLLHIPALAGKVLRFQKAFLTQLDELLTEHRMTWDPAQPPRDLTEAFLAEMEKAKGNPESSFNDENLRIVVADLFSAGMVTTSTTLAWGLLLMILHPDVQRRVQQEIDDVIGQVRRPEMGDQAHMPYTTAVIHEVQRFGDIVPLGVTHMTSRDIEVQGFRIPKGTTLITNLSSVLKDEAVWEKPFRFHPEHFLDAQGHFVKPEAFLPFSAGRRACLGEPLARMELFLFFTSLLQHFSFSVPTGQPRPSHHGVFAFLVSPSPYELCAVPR

[16] = target: T1, Cytochrome P450 3A4; test: Inhibition of CYP3A4 in human liver microsomes using midazolam as substrate upto 20 uM by LC-MS/MS analysis; assay type: ADME, Microsome
[17] = Genotoxicity in Salmonella typhimurium by Ames […] test; assay type: toxicity; details: salmonella enterica subsp. enterica serovar typhimurium
[18] = target: Voltage-gated inwardly rectifying potassium channel KCNH2 (Homo sapiens, UniProt Q12809); test: Inhibition of hERG upto 10 uM by whole-cell voltage clamp method; assay type: toxicity
Chain of Voltage-gated inwardly rectifying potassium channel KCNH2 (Q12809 whole entry): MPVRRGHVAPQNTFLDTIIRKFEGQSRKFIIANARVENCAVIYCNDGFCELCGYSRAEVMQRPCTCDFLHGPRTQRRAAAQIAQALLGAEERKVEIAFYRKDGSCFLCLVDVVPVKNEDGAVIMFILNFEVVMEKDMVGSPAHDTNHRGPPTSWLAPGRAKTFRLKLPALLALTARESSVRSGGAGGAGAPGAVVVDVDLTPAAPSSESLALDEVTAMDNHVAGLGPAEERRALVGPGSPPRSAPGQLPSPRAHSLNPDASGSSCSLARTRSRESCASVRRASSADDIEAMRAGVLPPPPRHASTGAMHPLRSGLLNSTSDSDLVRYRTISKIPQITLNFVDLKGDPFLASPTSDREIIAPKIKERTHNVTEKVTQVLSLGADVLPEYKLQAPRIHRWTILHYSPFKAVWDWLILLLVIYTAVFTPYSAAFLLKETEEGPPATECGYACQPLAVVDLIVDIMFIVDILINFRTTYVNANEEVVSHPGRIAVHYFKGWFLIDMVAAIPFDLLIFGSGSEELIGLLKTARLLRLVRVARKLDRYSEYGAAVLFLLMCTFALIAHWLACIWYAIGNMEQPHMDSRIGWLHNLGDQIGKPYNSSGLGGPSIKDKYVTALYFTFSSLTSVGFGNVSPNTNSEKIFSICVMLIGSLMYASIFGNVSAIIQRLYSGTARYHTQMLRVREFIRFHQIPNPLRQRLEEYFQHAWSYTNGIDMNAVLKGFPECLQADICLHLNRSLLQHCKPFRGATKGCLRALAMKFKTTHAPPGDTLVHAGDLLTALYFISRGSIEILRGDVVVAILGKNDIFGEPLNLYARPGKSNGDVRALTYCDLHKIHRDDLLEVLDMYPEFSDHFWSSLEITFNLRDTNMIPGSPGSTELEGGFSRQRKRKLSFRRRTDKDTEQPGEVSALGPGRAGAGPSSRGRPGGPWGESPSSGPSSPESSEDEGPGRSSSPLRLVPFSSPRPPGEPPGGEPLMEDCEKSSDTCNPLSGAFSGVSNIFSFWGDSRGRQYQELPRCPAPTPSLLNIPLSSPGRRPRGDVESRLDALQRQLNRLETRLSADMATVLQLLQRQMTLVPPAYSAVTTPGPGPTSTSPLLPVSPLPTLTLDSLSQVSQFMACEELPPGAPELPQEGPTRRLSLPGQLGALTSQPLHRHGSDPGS

[19] = target: Voltage-dependent L-type calcium channel subunit alpha-1C (Homo sapiens, UniProt Q13936); test: Inhibition of hCaV1.2 upto 10 uM by voltage clamp method; assay type: toxicity
[20] = Selectivity ratio of IC50 for C-terminal 6His-tagged recombinant human ADAM8 (1 to 497 residues) using Dabcyl-SSNQLQRR-Glu(EDANS)-NH2 as substrate to IC50 for ADAMTS7 (unknown origin)
[21] = Selectivity ratio of IC50 for C-terminal 10His-tagged recombinant human ADAM10 (214 to 672 residues) expressed in baculovirus infected Sf21 cells using Dabcyl-SSNQLQRR-Glu(EDANS)-NH2 as substrate to IC50 for ADAMTS7 (unknown origin)
[22] = Lipophilicity, logD of compound at pH 7.5; assay type: physicochemical; details: buffer
[23] = Dose normalized AUC in C57bl6 mouse at 0.3 mg/kg, iv measured for >24 hrs by HPLC-MS/MS analysis; assay type: ADME, organism-based; details: in vivo
[24] = Clearance in C57bl6 mouse at 0.3 mg/kg, iv measured for >24 hrs by HPLC-MS/MS analysis; assay type: ADME, organism-based; details: in vivo
[25] = Dose normalized AUC in C57bl6 mouse at 1 mg/kg, po measured for >24 hrs by HPLC-MS/MS analysis; assay type: ADME, organism-based; details: in vivo
[26] = Tmax in C57bl6 mouse at 1 mg/kg, po measured for >24 hrs by HPLC-MS/MS analysis; assay type: ADME, organism-based; details: in vivo
[27] = Oral bioavailability in C57bl6 mouse at 1 mg/kg measured for >24 hrs by HPLC-MS/MS analysis; assay type: ADME, organism-based; details: in vivo
[28] = Dose normalized AUC in Wistar rat at 0.3 mg/kg, iv measured for >24 hrs by HPLC-MS/MS analysis; assay type: ADME, organism-based; details: in vivo
[29] = Clearance in Wistar rat at 0.3 mg/kg, iv measured for >24 hrs by HPLC-MS/MS analysis; assay type: ADME, organism-based; details: in vivo
[30] = Volume of distribution at steady state in Wistar rat at 0.3 mg/kg, iv measured for >24 hrs by HPLC-MS/MS analysis; assay type: ADME, organism-based; details: in vivo
[31] = Half life in Wistar rat at 0.3 mg/kg, iv measured for >24 hrs by HPLC-MS/MS analysis; assay type: ADME, organism-based; details: in vivo
[32] = Half life in Wistar rat at 1 mg/kg, po measured for >24 hrs by HPLC-MS/MS analysis; assay type: ADME, organism-based; details: in vivo
[33] = Oral bioavailability in Wistar rat at 1 mg/kg measured for >24 hrs by HPLC-MS/MS analysis; assay type: ADME, organism-based; details: in vivo
[34] = Dose normalized AUC in Beagle dog at 0.3 mg/kg, iv measured for >24 hrs by HPLC-MS/MS analysis; assay type: ADME, organism-based, Canis lupus familiaris; details: in vivo
[35] = Volume of distribution at steady state in Beagle dog at 0.3 mg/kg, iv measured for >24 hrs by HPLC-MS/MS analysis; assay type: ADME, organism-based, Canis lupus familiaris; details: in vivo
[36] = Half life in Beagle dog at 0.3 mg/kg, iv measured for >24 hrs by HPLC-MS/MS analysis; assay type: ADME, organism-based, Canis lupus familiaris; details: in vivo
[37] = Dose normalized AUC in Beagle dog at 1 mg/kg, po measured for >24 hrs by HPLC-MS/MS analysis; assay type: ADME, organism-based, Canis lupus familiaris; details: in vivo
[38] = Half life in Beagle dog at 1 mg/kg, po measured for >24 hrs by HPLC-MS/MS analysis; assay type: ADME, organism-based, Canis lupus familiaris; details: in vivo
[39] = Oral bioavailability in Beagle dog at 1 mg/kg measured for >24 hrs by HPLC-MS/MS analysis; assay type: ADME, organism-based, Canis lupus familiaris; details: in vivo

Question: Which results are given for `Cn1nccc1[C@]1(CNC(=O)c2ccc(F)c(F)c2-c2ccc(C(F)(F)F)cc2)NC(=O)NC1=O`?
Answer: Ratio IC50 [1]: 5; Ratio IC50 [2]: 962; Ratio IC50 [3]: 17300; Ratio IC50 [4]: 13100; CL [5]: 0.6 L/kg/h; Activity [6]: 18 µM; solubility [7]: 297 mg/L (≈ 602 µM); solubility [8]: 513 mg/L (≈ 1040 µM); Stability [9]: Stable; pIC50 [10]: 7.57; Stability [11]: Stable; Fu [12]: 11%; Fu [13]: 15%; inhibition (INH) [14]: Not Active; inhibition (INH) [15]: Not Active; inhibition (INH) [16]: Not Active; Activity [17]: Non-Toxic; inhibition (INH) [18]: Not Active; inhibition (INH) [19]: Not Active; Ratio IC50 [20]: 375; Ratio IC50 [21]: 5470; logD [22]: 3.2; AUC/dose [23]: 1.15 kg·h/L; CL [24]: 1.1 L/h/kg; AUC/dose [25]: 2 kg·h/L; Tmax [26]: 1 h; bioavailability [27]: 100%; AUC/dose [28]: 3.1 kg·h/L; CL [29]: 0.55 L/h/kg; Vdss [30]: 1.2 L/kg; t1/2 [31]: 3.6 h; t1/2 [32]: 3.7 h; F [33]: 96%; AUC/dose [34]: 88 kg·h/L; Vdss [35]: 0.4 L/kg; t1/2 [36]: 22 h; AUC/dose [37]: 68 kg·h/L; t1/2 [38]: 25 h; F [39]: 77%
